# Source: patent US12343336B2, “Increasing cancer cells' sensitivity to tumor treating fields (TTFields) by inhibiting IL11 activity” (Novocure GmbH, priority 2019, dated 2025)
# How the values were obtained:
# [1] = tested on: N1S1 liver carcinoma cells; assay: N1S1 tumor volume by MRI in rats treated with TTFields and/or sorafenib; format: in vivo, Sprague Dawley rats
# Experimental: Tumor volume was determined by MRI. […] In this experiment, the volume of the tumor was measured using MRI on day 6 (one day before treatment start) and day 14 (one day after the end of treatment); and each data point in FIG. 1A represents the volume of the tumor on day 14 divided by the volume of the tumor on day 6. Thus, numbers greater than 1 represent growth in the tumor volume, and numbers smaller than 1 represent a tumor that has shrunk between day 6 and day 14. In this figure, “*” represents p<0.1, “**” represents p<0.01, and “****” represents p<0.0001. […] FIG. 1B represents the volume of the tumor.
# (§1) Male SD rats, 8-weeks of age (Envigo Ltd, Israel), were anesthetized by I.P. injection of Ketamine (75 mg/kg) and Xylazine (10 mg/kg)(FIG. 2). After loss of postural reflexes, the fur was removed from the upper abdominal area using a trimmer. The left lobe of the liver was surgically exposed and 10 μl of cell suspension containing 50,000 N1-S1 hepatocellular carcinoma cells in equal volumes of serum free medium and Matrigel (CORNING, Bedford, MA) were injected directly into the left lobe using a syringe with a 31-gauge needle. The peritoneum and abdominal muscles incisions were closed using surgical sutures and the skin were close by clips. The rats were allowed to recover for 6 days.
# (§2) On day 6 all animals underwent a first MRI scan and were randomly divided into the following treatment groups:
# (§3) Group I—rats were treated with sham heating electrodes and vehicle injection.
# (§4) Group II—rats were treated with 150 kHz TTFields and vehicle injection.
# Group III—rats were treated with 10 mg/kg/day Sorafenib.
# Group IV—rats were treated with 150 kHz TTFields and 10 mg/kg/day Sorafenib.
# On day 7, electrodes (TTFields or sham heating) were placed on the animals. The animals were treated for 6 days with TTFields or sham heat. […] Tumor volume were determined based on MRI scans on days […] after tumor implantation. […] Tumor volume was measured by manual segmentation of the tumor using ITK-SNAP version 3.6.0-rc1 free software. […]
# [2] = tested on: N1S1 tumors; assay: Fibrosis evaluation (score and Masson Trichrome morphometry) of treated N1S1 tumors; format: in vivo, SD rats
# Experimental: as §1, §2, §3, §4
# Group III—rats were treated with 10 mg/kg/day Sorafenib. […]
# On day 7, electrodes (TTFields or sham heating) were placed on the animals. […] Tumor volume were determined based on MRI scans on days […] after tumor implantation. […] Tumor volume was measured by manual segmentation of the tumor using ITK-SNAP version 3.6.0-rc1 free software. […]
# Tumors were harvested for histological evaluation of the grade of fibrosis using a semi-quantitative evaluation scale. […] Masson Trichrome stained sections were analyzed for fibrosis, using a scoring grade scale and digital morphometry.
# H&E stained sections were examined by one pathologist and scored by a semi-quantitative scoring system for the presence of pathological changes (FIGS. 3 and 3A), as follows: • Grade 0: no signs of fibrosis • Grade 1: very mild signs of fibrosis • Grade 2: mild signs of fibrosis • Grade 3: moderate signs of fibrosis • Grade 4: High grade of fibrosis • Grade 5: Very high grade of fibrosis […]
# The percent of the stained areas (FIG. 3: top-right) out of the whole tissue (FIG. 3: top-right+bottom-left) was calculated as shown in FIG. 4.
structure (smiles),measurement,setting,value
CNC(=O)c1cc(Oc2ccc(NC(=O)Nc3ccc(Cl)c(C(F)(F)F)c3)cc2)ccn1 [sorafenib],tumor volume,[1]; combination of TTFields (2.86 V/cm) and sorafenib (10 mg/kg/day),synergistic decrease
same,decrease in tumor volume,"[1]; combination of TTFields and sorafenib, N1S1 tumors, FIG. 1",≥ 10 fold
same,fold increase in tumor volume (day 14 / day 6),"[1]; combination of TTFields at 150 kHz and sorafenib 10 mg/kg/day IP, MRI",significantly reduced
same,fibrosis score,"[2]; TTFields in combination with sorafenib, relative to TTFields alone, evaluated by a pathologist",significantly reduced
same,reduction in fibrotic area compared to control group,[2]; combined treatment of 150 kHz TTFields and sorafenib 10 mg/kg/day,20.8%
same,decrease in fibrotic area relative to control,"[2]; sorafenib alone, 10 mg/kg/day, morphometry of fibrosis percent",30.4%
